Measurements: patent US12624068B2, “Exon skipping by peptide nucleic acid derivatives” (OliPass Corporation, priority 2016, dated 2026)
[C(1O2)] = modified PNA monomer acting as cytosine, C(pOq) type, 1O2; [A(5)] = modified PNA monomer acting as adenine, A(p) type, p=5; [G(5)] = modified PNA monomer acting as guanine, G(p) type, p=5; {Fethoc} = N-terminal Fethoc cap; {NH2} = C-terminal amide

Experiments:
[1] = system: mdx mice; assay: Rotarod test in mdx mice; assay type: in vivo, mouse; details: 100 pmole/Kg subcutaneous 3× per week
Experimental: Given with the exon skipping potential, “DMD-ASO 1” was evaluated in mdx mice for its ability to improve muscle function by rotarod test as described below.
[Grouping] 6 weeks old male mdx mice were trained for rotarod test over a period of 2 weeks, and then randomly assigned into 3 groups of 0 (negative control), 100 and 1,000 pmole/Kg “DMD-ASO 1” based on individual scores by rotarod test in Day 0, i.e., the day of grouping. (N=10 per group)
[ASO Treatment] The injection solutions were prepared by serially diluting the ASO to 20 nM and 200 nM in PBS. Animals were subcutaneously administered with vehicle (PBS, negative control), 20 nM “DMD-ASO 1” (100 pmole/Kg), or 200 nM “DMD-ASO 1” (1,000 pmole/Kg) at 5 mL/Kg, 3× per week over a period of Day 0 to Day 21.
[Rotarod Test and Statistical Analysis] Mice were subjected to rotarod test on a rotarod apparatus (Model #47650, Ugo Basile) with an acceleration schedule of 4 rpm to 45 rpm over 60 seconds. The latency to fall (i.e., the duration that animal remained on the rotarod) was scored for each individual animal. Statistical significance was evaluated by student's t-test against the negative control group.

[2] = system: mdx mice; assay: Histopathology by H&E staining of skeletal muscle in mdx mice; assay type: in vivo, mouse
Text: [Histopathology by H&E Staining] Muscular inflammation and degeneration are the hallmark of DMD symptoms. Skeletal muscle samples were subjected to histopathology evaluation by H&E staining. FIG. 43 provides a representative set of H&E staining images for the triceps by group and sampling time point.

[3] = system: serum myoglobin; assay: Serum myoglobin level in mdx mice; assay type: in vivo; details: DMD-ASO 1 50 pmole/Kg, DMD-ASO 2 or DMD-ASO 6 10 pmole/Kg, 2× per week, Week 66
Experimental: [Terminal Sacrifice] In Week 48, the animals were subjected to terminal sacrifice for blood sampling. The blood samples were analyzed for the serum level of CK (Creatine Kinase Activity Assay Kit, Cat. Number ab155901, Abcam) and myoglobin (Myoglobin ELISA Kit, Cat. Number ab210965, Abcam) to assess the degree of muscle degradation according to the manufacturer's instructions. Muscle tissues were analyzed by western blot for the full-length dystrophin.
[Terminal Sacrifice] All the survived animals were sacrificed for blood sampling in Week 66 post the grouping. The blood samples were subjected to ELISA assays for serum creatine kinase (CK) and serum myoglobin as described in “DMD Example 6”.

[4] = system: sodium ion current in rat DRG cells; assay: CoroNa assay of sodium current in rat L5 DRG neuronal cells; assay type: cell-based; details: rat L5 DRG cells without L5/L6 ligation, 30 hrs
Experimental: “SCN-ASO 27” was evaluated for its ability to inhibit the sodium ion current in rat DRG (dorsal root ganglion) cells using “CoroNa Green” as follows.
[SNL Surgery by L5/L6 Ligation] In Day 0, 6 weeks old male SD rats were anesthetized with zoletil/rompun. Then the L5 and L6 spinal nerve (left side) were exposed and tightly ligated. The muscle and skin were closed and clipped by due aseptic procedures. The rats were sporadically sensitized by von Frey scoring over a period of 4 weeks.
[Preparation of DRG Neuronal Cells] In Day 31, a rat showing a low von Frey score was sacrificed to extract both the left (ligated side) and the right (non-ligated side) DRG. […]
[ASO Treatment & CoroNa Assay] […] The culture dish was mounted on a fluorescence microscope equipped with a CCD camera to continuously capture the green fluorescent images of the cells. The cells were acutely treated with 10 mM NaCl, and then the changes in the cellular fluorescent intensity were digitally recorded over a period of 300 sec. […] The fluorescence intensities from each individual cell were traced at a resolution of a second. The traces of the intracellular fluorescence intensities from individual cells were averaged using ImageJ program (version 1.50i, NIH), and the average traces are provided in FIGS. 33A and 33B for the cells with “L5/L6 ligation” and without “L5/L6 ligation”, respectively. […]

Substance	muscle function by rotarod test [1]	muscular degeneration and inflammation (H&E) ([2]; chronic 200 pmole/Kg)	severity of the histopathology findings (H&E) ([2]; chronic 10 and 50 pmole/Kg)	serum myoglobin level smaller than the mdx negative control group by [3] [%]	decrease in fluorescence intensity (CoroNa) ([4]; 1 aM) [%]	decrease in fluorescence intensity (CoroNa) ([4]; 100 zM)
Fethoc-A(5)GA-G(6)CC(1O2)-TCA-A(5)AA(5)-T-NH2 (antisense AGAGCCTCAAAAT; Fethoc N-cap, C-terminal amide, chemistry not fully specified) [DMD-ASO 1]	showed a strong propensity of improvement, but was not significant	reversed	weaker than the severity in the mdx negative control, but stronger than that in the 200 pmole/Kg group	43	–	–
Fethoc-AA(5)G-TG(5)T-A(5)CC(1O2)-TA(5)A-A(5)C-NH2 (AAGTGTACCTAAAC; splice-switching; all peptide nucleic acid (PNA), [A(5)] at 2, 7, 11, 13, [G(5)] at 5, [C(1O2)] at 9, 5' {Fethoc}, 3' {NH2}; peptide nucleic acid written N to C) [SCN-ASO 27]	–	–	–	–	~50	no decrease
